# Results taken from article PMC9194936, “Preclinical Activity and Pharmacokinetic/Pharmacodynamic Relationship for a Series of Novel Benzenesulfonamide Perforin Inhibitors” (ACS Pharmacology & Translational Science, 2022).
# Like-named read-outs stand apart in the source and are kept apart here.
# Key:
# [1] = Mouse plasma pharmacokinetics; type: in vivo; conditions: for AUC(0-t): read-out: AUC0–24
# Method: Male C57BL/6 mice (18–25 g) were supplied and housed under controlled temperature and humidity at the Vernon Jansen Unit of the University of Auckland. The mice had access to a pelleted diet and water ad libitum. All animal experimentation followed protocols approved by the University of Auckland Animal Ethics Committee (approval #001781). Dosing solutions were prepared in 20% hydroxypropyl-β-cyclodextrin (Sigma-Aldrich). The mice received one to three doses by intraperitoneal route and were euthanised at predetermined time points (n = 3 mice per time point at 0.083, 0.25, 0.5, 1, 2, 4, 6, and 24 h for 10 mg/kg 1 and 7; 0.5, 1, 2, 6, and 24 h for 80 and 160 mg/kg 1; and 1, 6, and 24 h for 120 mg/kg 1). Blood samples (∼300 μL) were obtained through cardiac bleed and collected in ice-cold K2-EDTA tubes (BD, Franklin Lakes, NJ). Plasma was separated by centrifugation at 6500 rpm for 5 min and stored at −80 °C. On the day of analysis, plasma samples were thawed on ice and the analytes were extracted by mixing 10 μL of aliquots with four volumes of ice-cold acetonitrile/methanol (1:1 v/v) containing internal standard. The samples were kept on ice for 10 min to ensure complete protein precipitation, vortexed for 2 min, and centrifuged at 13 000 rpm for 5 min at room temperature. The clear supernatant was then diluted (1:1 v/v) with 40 μL of 0.01% formic acid in Milli-Q water prior to analysis by LC-MS/MS.
# Compound concentration in biological matrices was measured by LC-MS/MS using a 6410b triple-quadrupole mass spectrometer (Agilent, Santa Clara) equipped with a multimode ionization source. The optimized mass detector conditions, namely, ionization polarity, precursor product ions, fragmentor voltage, and collision energy, were manually determined by infusing a 5 μM solution of the pure compound into the ion source. Chromatographic separation was achieved using a Zorbax SB-C18, 50 × 2.1 mm^2, 5 μm column (Agilent), and an Agilent 1100 series HPLC system. The mobile phase used was (A) 0.01% formic acid in Milli-Q water and (B) 80% acetonitrile containing 0.01% formic acid in ultrapure water at a flow rate of 0.6 mL/min. A gradient elution was used over 5 min, and the flow rate was maintained at 0.6 mL/min throughout the gradient. The column oven temperature and the autosampler temperature were set to 35 and 4 °C, respectively. […] The instrument multimode source parameters were set as follows: gas temperature, 325 °C; vaporizer, 250 °C; gas flow, 5 L/min; and nebulizer, 45 psi. The ion spray voltage was set at 3000 V. Detection of the compounds was carried out in multiple reaction monitoring mode by monitoring the m/z transitions of precursor to selective product ion. For each compound, fragmentor voltage and collision energy were optimized to achieve maximum abundance. Quadrupoles Q1 and Q3 were set to unit resolution.
# (§1) Test samples were diluted up to 100-fold in blank plasma as necessary and quantitated against a calibration curve of known analyte concentrations ranging from 3 nM to 30 μM in an appropriate matrix and quality controls at 0.03, 0.3, 3, and 30 μM. Pharmacokinetic parameters were evaluated using noncompartmental analysis and pharmacokinetic simulations using one-compartment analysis on Phoenix WinNonlin version 6.2 (Certara, Princeton, NJ). Multiple-dose simulations were generated from parameters derived from single-dose simulations.
# [2] = One-compartment pharmacokinetic model simulations; set-up: species or system mouse
# Method: For determination of plasma concentrations of 1, C57BL/6 mice were treated with a single dose of 1 at four different dose levels (160, 120, 80, and 10 mg/kg) and blood samples were collected at multiple timepoints after dosing. Overall, the pharmacokinetics followed a dose-dependent relationship that was close to linear (Figure 3A). […] To confirm the accuracy of the simulations, C57BL/6 mice were treated intraperitoneally with 80, 120, or 160 mg/kg dose of 1 and the resulting plasma concentrations were evaluated at multiple time points within a 24 h period after one (0 h), two (0, 18 h) or three (0, 9 h, 18 h) doses.
# Given the high concentrations required, there is potential for saturation of plasma protein binding to occur, where small dose increments could cause large increases in unbound concentrations.[35]
# as §1
# perforin = target: T1, perforin (Mus musculus, UniProt P10820); experiment: PK/PD relationship (sigmoid Emax model, regression analysis); conditions: in vivo mouse model
# T1 construct: endogenous in cells; host or cells: recipient cytotoxic lymphocytes (NK/CTL) of wild-type C57BL/6 mice, in vivo
# T1 sequence (P10820 21-554): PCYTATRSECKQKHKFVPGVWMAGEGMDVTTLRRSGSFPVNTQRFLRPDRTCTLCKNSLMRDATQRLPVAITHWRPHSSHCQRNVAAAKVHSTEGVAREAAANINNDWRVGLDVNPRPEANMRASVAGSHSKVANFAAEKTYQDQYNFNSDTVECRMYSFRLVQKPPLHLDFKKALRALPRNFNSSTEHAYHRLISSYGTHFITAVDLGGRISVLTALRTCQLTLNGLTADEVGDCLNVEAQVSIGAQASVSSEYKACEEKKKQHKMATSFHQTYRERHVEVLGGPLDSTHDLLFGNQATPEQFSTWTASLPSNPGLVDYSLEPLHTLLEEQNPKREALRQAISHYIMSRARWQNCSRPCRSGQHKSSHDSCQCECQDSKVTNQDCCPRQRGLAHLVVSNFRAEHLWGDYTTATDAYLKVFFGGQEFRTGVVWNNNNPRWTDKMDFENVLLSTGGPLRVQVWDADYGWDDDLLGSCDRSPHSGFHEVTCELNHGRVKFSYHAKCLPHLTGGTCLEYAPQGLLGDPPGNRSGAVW
# Method: The relationship between efficacy (% perforin inhibition in peripheral blood and spleen) and pharmacokinetics was determined for different pharmacokinetic properties (Figure 5A,B). […] Simply maintaining the concentrations above a minimal level without reaching very high levels was not sufficient for perforin inhibition, as exemplified by three doses at 80 mg/kg.
# The normality of in vivo perforin inhibition data was checked by Shapiro–Wilk and D’Agostino–Pearson normality tests. Statistical tests were performed by one-way ANOVA with multiple comparisons made to the vehicle-treated group and corrected using Dunnett’s post-test analysis. A comparison of measured and simulated plasma concentrations was analyzed by linear regression. Efficacy data were correlated to pharmacokinetic data using a sigmoid Emax model and regression analysis. All statistical analyses were conducted using Prism v8 or 9.
# [3] = KHYG-1 viability (Trypan Blue exclusion); type: cell-based; conditions: human, KHYG-1 NK cells, at 20 μM
# Method: The toxicity of perforin inhibitors toward KHYG-1 NK cells was determined as described previously.[14] KHYG-1 cells were preincubated with compounds in the same manner as the KHYG-1 cytotoxicity assay prior to the addition of RPMI with 0.1% BSA and incubation at 37 °C for 4 h. The cells were then washed and resuspended in complete medium and incubated for a further 24 h at 37 °C, after which cell viability was assessed by Trypan Blue (Thermo Fisher Scientific) exclusion.
# [4] = male, mouse, ip, 80 mg/kg single i.p. dose, C57BL/6 mice, plasma
# [5] = male, mouse, ip, 120 mg/kg single i.p. dose, C57BL/6 mice, plasma
# [6] = male, mouse, ip, 160 mg/kg single i.p. dose, C57BL/6 mice, plasma
# [7] = male, C57BL/6, ip, mouse plasma, 10 mg/kg intraperitoneal
smiles,measurement,setting,value
"CN1Cc2cc(-c3ccc(-c4cncc(NS(=O)(=O)c5ccccc5[N+](=O)[O-])c4)s3)ccc2C1=O [Compound 1, N-{5-[5-(2-methyl-1-oxo-2,3-dihydro-1H-isoindol-5-yl)-2-thienyl]-3-pyridinyl}-2-nitrobenzenesulfonamide]",Cmax,"[1]; 10 mg/kg single i.p. dose, C57BL/6 mice, plasma",105 µM
same,half-life,"[1]; male, C57BL/6, mouse, plasma, intraperitoneal, across the dose levels 160, 120, 80 and 10 mg/kg, read-out: elimination half-life",2.4 to 3.4 h
same,AUC(0-t),"[1]; male, mouse, ip, 10 mg/kg single i.p. dose, C57BL/6 mice, plasma",413 µM·h
same,half-life,"[1]; male, mouse, ip, 10 mg/kg single i.p. dose, C57BL/6 mice, plasma, read-out: T1/2 (converted)",2.38 h
same,Cmax,[1]; [4],782 µM
same,AUC(0-t),[1]; [4],5440 µM·h
same,half-life,"[1]; male, mouse, ip, 80 mg/kg single i.p. dose, C57BL/6 mice, plasma, read-out: T1/2 (converted)",2.85 h
same,Cmax,[1]; [5],1030 µM
same,AUC(0-t),[1]; [5],7320 µM·h
same,half-life,"[1]; male, mouse, ip, 120 mg/kg single i.p. dose, C57BL/6 mice, plasma, read-out: T1/2 (converted)",2.85 h
same,Cmax,[1]; [6],1190 µM
same,AUC(0-t),[1]; [6],8940 µM·h
same,half-life,"[1]; male, mouse, ip, 160 mg/kg single i.p. dose, C57BL/6 mice, plasma, read-out: T1/2 (converted)",3.36 h
same,duration that plasma concentration achieved 350 μM,[2]; 80 mg/kg three-dose schedule,14.9 h
same,duration that plasma concentration achieved 350 μM,[2]; two doses of 120 mg/kg,12.0 h
same,duration that plasma concentration achieved 350 μM,[2]; two doses of 160 mg/kg,13.4 h
same,total plasma concentration to be continuously maintained for optimal perforin inhibition,perforin,> 900 µM
"O=C1NCc2ccc(-c3ccc(-c4cncc(NS(=O)(=O)c5ccc(F)cc5F)c4)s3)cc21 [Compound 7, 2,4-difluoro-N-{5-[5-(3-oxo-2,3-dihydro-1H-isoindol-5-yl)-2-thienyl]-3-pyridinyl}benzenesulfonamide]","viability at 24 h, 20 µM",[3],96 ± 6%
same,AUC,[1]; [7],1220 µM·h
same,Cmax,[1]; [7],235 µM
same,half-life,"[1]; male, C57BL/6, ip, mouse plasma, 10 mg/kg intraperitoneal, read-out: T1/2 (converted)",4.1 h
